Laboratory results published in patent US20100137305A1, “AMINOPYRIMIDINES USEFUL AS KINASE INHIBITORS” (VERTEX PHARMACEUTICALS INCORPORATED, priority 2008, published 2010).
Where two headings read alike, the source gives them in different places.

Legend:
Colo205 cells = assay: Analysis of Cell Proliferation, 3H thymidine incorporation; assay type: cell-based; conditions: Homo sapiens
Protocol: Compounds were screened for their ability to inhibit cell proliferation using Colo205 cells obtained from ECACC and using the assay shown below.
Colo205 cells were seeded in 96 well plates and serially diluted compound was added to the wells in duplicate. Control groups included untreated cells, the compound diluent (0.1% DMSO alone) and culture medium without cells. The cells were then incubated for 72 or 96 hrs at 37C in an atmosphere of 5% CO2/95% humidity.
To measure proliferation, 3 h prior to the end of the experiment 0.5 μCi of 3H thymidine was added to each well. Cells were then harvested and the incorporated radioactivity counted on a Wallac microplate beta-counter. Dose response curves were calculated using either Prism 3.0 (GraphPad) or SoftMax Pro 4.3.1 LS (Molecular Devices) software.

Aurora-2 (Aurora A) = molecular target: T1, Aurora-2 (Aurora A) (Homo sapiens, UniProt O14965); assay: Aurora-2 (Aurora A) Inhibition Assay, coupled enzyme assay; assay type: biochemical; conditions: 400 μM ATP, 30° C.; read-out: Aurora A kinase activity Ki
T1 sequence (O14965 1-403): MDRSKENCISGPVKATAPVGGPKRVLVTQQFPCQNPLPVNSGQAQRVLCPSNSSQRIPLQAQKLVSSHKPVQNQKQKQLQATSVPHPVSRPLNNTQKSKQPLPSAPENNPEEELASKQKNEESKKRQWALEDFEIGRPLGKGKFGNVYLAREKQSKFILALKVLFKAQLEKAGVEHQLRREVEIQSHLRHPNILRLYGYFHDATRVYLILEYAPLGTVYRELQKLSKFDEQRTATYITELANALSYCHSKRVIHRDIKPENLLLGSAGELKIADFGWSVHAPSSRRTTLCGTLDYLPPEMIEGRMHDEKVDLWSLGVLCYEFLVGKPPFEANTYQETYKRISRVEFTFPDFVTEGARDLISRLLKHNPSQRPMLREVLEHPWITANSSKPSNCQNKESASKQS
Protocol: Compounds were screened for their ability to inhibit Aurora-2 using a standard coupled enzyme assay (Fox et al., Protein Sci., (1998) 7, 2249). Assays were carried out in a mixture of 100 mM Hepes (pH7.5), 10 mM MgCl2, 1 mM DTT, 25 mM NaCl, 2.5 mM phosphoenolpyruvate, 300 μM NADH, 30 μg/ml pyruvate kinase and 10 μg/ml lactate dehydrogenase. Final substrate concentrations in the assay were 400 μM ATP (Sigma Chemicals) and 570 μM peptide (Kemptide, American Peptide, Sunnyvale, Calif.). Assays were carried out at 30° C. and in the presence of 40 nM Aurora-2.
An assay stock buffer solution was prepared containing all of the reagents listed above, with the exception of Aurora-2 and the test compound of interest. 55 μl of the stock solution was placed in a 96 well plate followed by addition of 2 μl of DMSO stock containing serial dilutions of the test compound (typically starting from a final concentration of 7.5 μM). The plate was preincubated for 10 minutes at 30° C. and the reaction initiated by addition of 10 μl of Aurora-2. Initial reaction rates were determined with a Molecular Devices SpectraMax Plus plate reader over a 10 minute time course. IC50 and Ki data were calculated from non-linear regression analysis using the Prism software package (GraphPad Prism version 3.0cx for Macintosh, GraphPad Software, San Diego Calif., USA).

Aurora-1 (Aurora B) = Aurora-1 (Aurora B) (Homo sapiens, UniProt Q96GD4); assay: Aurora-1 (Aurora B) Inhibition Assay (radiometric); assay type: biochemical; conditions: 800 μM ATP; read-out: Aurora B kinase activity Ki
Protocol: An assay buffer solution was prepared which consisted of 25 mM HEPES (pH 7.5), 10 mM MgCl2, 0.1% BSA and 10% glycerol. A 22 nM Aurora-B solution, also containing 1.7 mM DTT and 1.5 mM Kemptide (LRRASLG), was prepared in assay buffer. To 22 μL of the Aurora-B solution, in a 96-well plate, was added 2 μl of a compound stock solution in DMSO and the mixture allowed to equilibrate for 10 minutes at 25° C. The enzyme reaction was initiated by the addition of 16 μl stock [γ-^33P]-ATP Pi-ATP solution (˜20 nCi/μL) prepared in assay buffer, to a final assay concentration of 800 μM. The reaction was stopped after 3 hours by the addition of 16 μL 500 mM phosphoric acid and the levels of ^33P incorporation into the peptide substrate were determined by the following method.
A phosphocellulose 96-well plate (Millipore, Cat no. MAPHNOB50) was pre-treated with 100 μL of a 100 mM phosphoric acid prior to the addition of the enzyme reaction mixture (40 μL). The solution was left to soak on to the phosphocellulose membrane for 30 minutes and the plate subsequently washed four times with 200 μL of a 100 mM phosphoric acid. To each well of the dry plate was added 30 μL of Optiphase ‘SuperMix’ liquid scintillation cocktail (Perkin Elmer) prior to scintillation counting (1450 Microbeta Liquid Scintillation Counter, Wallac). Levels of non-enzyme catalyzed background radioactivity were determined by adding 16 μL of the 500 mM phosphoric acid to control wells, containing all assay components (which acts to denature the enzyme), prior to the addition of the [γ-^33P]-ATP solution. Levels of enzyme catalyzed ^33P incorporation were calculated by subtracting mean background counts from those measured at each inhibitor concentration. For each Ki determination 8 data points, typically covering the concentration range 0-10 μM compound, were obtained in duplicate (DMSO stocks were prepared from an initial compound stock of 10 mM with subsequent 1:2.5 serial dilutions). Ki values were calculated from initial rate data by non-linear regression using the Prism software package (Prism 3.0, Graphpad Software, San Diego, Calif.).

[1] = COLO 205, 96 h, 96 hours, read-out: IC50 cell proliferation after 96 hours
[2] = COLO 205, 72 h, 72 hours, read-out: IC50 cell proliferation after 72 hours

Sequence of Aurora-1 (Aurora B) (Q96GD4 whole entry): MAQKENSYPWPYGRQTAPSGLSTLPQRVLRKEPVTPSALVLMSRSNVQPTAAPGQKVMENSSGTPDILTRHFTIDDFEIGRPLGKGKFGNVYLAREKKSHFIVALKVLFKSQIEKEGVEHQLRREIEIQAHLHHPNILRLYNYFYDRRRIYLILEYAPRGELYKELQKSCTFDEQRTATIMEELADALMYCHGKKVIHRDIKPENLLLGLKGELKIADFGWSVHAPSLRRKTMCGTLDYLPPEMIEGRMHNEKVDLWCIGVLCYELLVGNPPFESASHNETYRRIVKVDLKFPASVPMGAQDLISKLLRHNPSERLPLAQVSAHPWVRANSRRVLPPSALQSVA

Structure (SMILES) | IC50 (Colo205 cells; [1]) [nM] | Ki (Aurora-2 (Aurora A)) [nM] | Ki (Aurora-1 (Aurora B)) [nM] | IC50 (Colo205 cells; [2]) [nM]
CCC(=O)Nc1ccc(Sc2nc(Nc3cc(C4CC4)n[nH]3)cc(N3CCC(N4CCCC4)CC3)n2)cc1 [Compound I-56] | ≤ 50 | ≤ 10 | 10 to 50 | ≤ 25
Cc1cnc(Nc2cc(N3CC[C@@H](O)C3)nc(Sc3ccc(NC(=O)C4CC4)cc3)n2)s1 [Compound I-6] | – | ≤ 10 | 10 to 50 | –
Cc1cc(Nc2cc(N3CCC4(CC3)OCCO4)nc(Sc3ccc(NC(=O)CC(F)(F)F)cc3)n2)[nH]n1 [Compound I-79] | – | ≤ 10 | ≤ 10 | 25 to 125
CCC(=O)Nc1ccc(Sc2nc(Nc3cc(C)n[nH]3)cc(N3CCC(N4CCCC4(C)C)CC3)n2)cc1 [Compound I-33] | 50 to 200 | ≤ 10 | 10 to 50 | –
CCC(=O)Nc1ccc(Sc2nc(Nc3cc(C)[nH]n3)cc(N3CCC4(CC3)OCCO4)n2)cc1 [Compound I-15] | 50 to 200 | ≤ 10 | 10 to 50 | –
CCC(=O)Nc1ccc(Sc2nc(Nc3cc(C)[nH]n3)cc(N3CC[C@H](NC(C)C)C3)n2)cc1 [Compound I-28] | 50 to 200 | 10 to 50 | – | –
CCC(=O)Nc1ccc(Sc2nc(Nc3cc(C)n[nH]3)cc(N3CCC(O)(CC(C)(C)C)C3)n2)cc1 (centres unmarked) [Compound I-2] | – | ≤ 10 | – | –
Cc1cc(Nc2cc(N3CC[C@@H](F)C3)nc(Sc3ccc(NC(=O)c4ccccc4C(F)(F)F)cc3)n2)[nH]n1 [Compound I-74] | – | ≤ 10 | ≤ 10 | ≤ 25
Cc1cnc(Nc2cc(N3CC[C@H](OC(C)C)C3)nc(Sc3ccc(NC(=O)C4CC4)cc3)n2)s1 [Compound I-5] | – | ≤ 10 | 10 to 50 | –
CCC(=O)Nc1ccc(Sc2nc(Nc3cc(C)n[nH]3)cc(N3CCC(O)(C(C)(C)C)C3)n2)cc1 (centres unmarked) [Compound I-10] | 50 to 200 | ≤ 10 | – | –
CCC(=O)Nc1ccc(Sc2nc(Nc3cc(C)n[nH]3)cc(N3CC[C@@H](NC(C)C)C3)n2)cc1 [Compound I-1] | – | 10 to 50 | – | –
CN[C@H]1CCCN(c2cc(Nc3ncc(C)s3)nc(Sc3ccc(NC(=O)C4CC4)cc3)n2)C1 [Compound I-25] | 50 to 200 | ≤ 10 | – | –
Cc1cnc(Nc2cc(N3CCC[C@H](N(C)C)C3)nc(Sc3ccc(NC(=O)C4CC4)cc3)n2)s1 [Compound I-8] | 50 to 200 | 10 to 50 | – | –
CCC(=O)Nc1ccc(Sc2nc(Nc3cc(C)n[nH]3)cc(N3CCC(C(C)(C)C)CC3)n2)cc1 [Compound I-23] | 50 to 200 | ≤ 10 | – | –
CCC(=O)Nc1ccc(Sc2nc(Nc3cc(C)n[nH]3)cc(N3CCC(N4CCCC4(C)C)C3)n2)cc1 (centres unmarked) [Compound I-3] | – | ≤ 10 | – | –
CCC(=O)Nc1ccc(Sc2nc(Nc3cc(C)n[nH]3)cc(N3CCC(N4CCCC4)C3)n2)cc1 (centres unmarked) [Compound I-48] | ≤ 50 | ≤ 10 | – | –

Next, values leading:

IC50 (Colo205 cells; [1]) [nM] | Ki (Aurora-2 (Aurora A)) [nM] | Ki (Aurora-1 (Aurora B)) [nM] | IC50 (Colo205 cells; [2]) [nM] | Structure (SMILES)
50 to 200 | ≤ 10 | 10 to 50 | – | CCC(=O)Nc1ccc(Sc2nc(Nc3cc(C)n[nH]3)cc(N3CCC(C)(O)CC3)n2)cc1 [Compound I-21]
≤ 50 | ≤ 10 | 10 to 50 | – | CN1CCC2(CCN(c3cc(Nc4cc(C5CC5)n[nH]4)nc(Sc4ccc(NC(=O)C5CC5)cc4)n3)CC2)C1 [Compound I-51]
50 to 200 | 10 to 50 | – | – | Cc1cnc(Nc2cc(N3CCC[C@@H](N(C)C)C3)nc(Sc3ccc(NC(=O)C4CC4)cc3)n2)s1 [Compound I-13]
≤ 50 | ≤ 10 | 10 to 50 | – | CCC(=O)Nc1ccc(Sc2nc(Nc3cc(C)n[nH]3)cc(N3CCC(N4CCC(F)C4)CC3)n2)cc1 (centres unmarked) [Compound I-43]
– | ≤ 10 | 10 to 50 | – | CCC(=O)Nc1ccc(Sc2nc(Nc3cc(C)n[nH]3)cc(N3CCC(OC(C)(C)C)CC3)n2)cc1 [Compound I-85]
– | ≤ 10 | ≤ 10 | ≤ 25 | Cc1cc(Nc2cc(N3CC[C@H](N(C)C)C3)nc(Sc3ccc(NC(=O)c4ccccc4C(F)(F)F)cc3)n2)[nH]n1 [Compound I-70]
50 to 200 | ≤ 10 | 10 to 50 | – | CO[C@H]1CCN(c2cc(Nc3ncc(C)s3)nc(Sc3ccc(NC(=O)C4CC4)cc3)n2)C1 [Compound I-14]
50 to 200 | ≤ 10 | 10 to 50 | – | CCC(=O)Nc1ccc(Sc2nc(Nc3cc(C)n[nH]3)cc(N3CC[C@H](NC)C3)n2)cc1 [Compound I-22]
≤ 50 | ≤ 10 | 10 to 50 | – | CCC(=O)Nc1ccc(Sc2nc(Nc3cc(C)n[nH]3)cc(N3CCC(C(C)(C)OC)CC3)n2)cc1 [Compound I-45]
50 to 200 | ≤ 10 | ≤ 10 | – | CCC(=O)Nc1ccc(Sc2nc(Nc3cc(C4CC4)n[nH]3)cc(N3CCC(F)C3)n2)cc1 (centres unmarked) [Compound I-20]
≤ 50 | ≤ 10 | – | – | Cc1cnc(Nc2cc(N3CC[C@@H](N4CCCC4)C3)nc(Sc3ccc(NC(=O)C4CC4)cc3)n2)s1 [Compound I-37]
– | ≤ 10 | ≤ 10 | 25 to 125 | Cc1cc(Nc2cc(N3CCC(F)C3)nc(Sc3ccc(NC(=O)c4ccccc4C(F)(F)F)cc3)n2)[nH]n1 (centres unmarked) [Compound I-76]
≤ 50 | ≤ 10 | 10 to 50 | – | CCC(=O)Nc1ccc(Sc2nc(Nc3cc(C)n[nH]3)cc(N3CCC(N4CCOCC4)CC3)n2)cc1 [Compound I-40]
≤ 50 | ≤ 10 | – | – | CN[C@@H]1CCN(c2cc(Nc3ncc(C)s3)nc(Sc3ccc(NC(=O)C4CC4)cc3)n2)C1 [Compound I-36]
50 to 200 | ≤ 10 | – | – | Cc1cnc(Nc2cc(N3CC[C@H](N(C)C)C3)nc(Sc3ccc(NC(=O)C4CC4)cc3)n2)s1 [Compound I-30]
≤ 50 | ≤ 10 | – | – | CCC(=O)Nc1ccc(Sc2nc(Nc3cc(C)n[nH]3)cc(N3CC[C@H](N(C)CC)C3)n2)cc1 [Compound I-50]
– | ≤ 10 | – | 25 to 125 | Cc1cc(Nc2cc(N3CCC(N4CCCC4)CC3)nc(Sc3ccc(NC(=O)CC4CC4)cc3)n2)n[nH]1 [Compound I-83]
50 to 200 | ≤ 10 | – | – | CCC(=O)Nc1ccc(Sc2nc(Nc3cc(C)n[nH]3)cc(N3CCC(C)(N4CCCC4)CC3)n2)cc1 [Compound I-34]
50 to 200 | ≤ 10 | – | – | CCC(=O)Nc1ccc(Sc2nc(Nc3cc(C)n[nH]3)cc(N3CC4CCCNC4C3)n2)cc1 (centres unmarked) [Compound I-19]
